Data taken from ChEMBL document CHEMBL4118193, “1,2,3,4,6-Penta-O-galloyl-β-d-glucose suppresses colon cancer through induction of tumor suppressor” (Bioorg Med Chem Lett, 2018).
Active and inactive are the calls of the source. No cut-off for these calls is given here.

Legend:
HCT-116 [1] = assay: Induction of apoptosis in human HCT116 cells assessed as necrotic cells at 5 uM after 48 hrs by Annexin-V and dead cell assay (reference value: 0.10%); format: functional
HCT-116 [2] = assay: Induction of apoptosis in human HCT116 cells assessed as necrotic cells at 2.5 uM after 48 hrs by Annexin-V and dead cell assay (reference value: 0.10%); format: functional
HT-29 [3] = assay: Cell cycle arrest in human HT-29 cells assessed as accumulation at S phase at 2.5 uM after 48 hrs (reference value: 9.7%); format: functional
HT-29 [4] = assay: Induction of apoptosis in human HT-29 cells assessed as DNA fragmentation at 1 to 10 uM after 48 hrs by ELISA; format: functional, cell-based
HT-29 [5] = assay: Induction of apoptosis in human HT-29 cells assessed as in p53 protein level at 2.5 uM after 48 hrs by Western blot method relative to beta-actin; format: functional
HT-29 [6] = assay: Cell cycle arrest in human HT-29 cells assessed as accumulation at G0/G1 phase at 5 uM after 48 hrs (reference value: 53.9%); format: functional
HT-29 [7] = assay: Induction of apoptosis in human HT-29 cells assessed as cyclin E protein level at 2.5 uM after 48 hrs by Western blot method relative to beta-actin; format: functional
HT-29 [8] = assay: Induction of apoptosis in human HT-29 cells assessed as CDK2 protein level at 10 uM after 48 hrs by Western blot method relative to beta-actin; format: functional
HCT-116 [9] = assay: Cell cycle arrest in human HCT116 cells assessed as accumulation at S phase at 2.5 uM after 48 hrs (reference value: 10.9%); format: functional
HT-29 [10] = assay: Induction of apoptosis in human HT-29 cells assessed as p21 protein level at 1 uM after 48 hrs by Western blot method relative to beta-actin; format: functional
HCT-116 [11] = assay: Induction of apoptosis in human HCT116 cells assessed as p21 protein level at 2.5 uM after 48 hrs by Western blot method relative to beta-actin; format: functional
HCT-116 [12] = assay: Cell cycle arrest in human HCT116 cells assessed as accumulation at G2/M phase at 10 uM after 48 hrs (reference value: 21.5%); format: functional
HT-29 [13] = assay: Cell cycle arrest in human HT-29 cells assessed as accumulation at S phase at 1 uM after 48 hrs (reference value: 9.7%); format: functional
HCT-116 [14] = assay: Induction of apoptosis in human HCT116 cells assessed as cyclin E protein level at 10 uM after 48 hrs by Western blot method relative to beta-actin; format: functional
HCT-116 [15] = assay: Induction of apoptosis in human HCT116 cells assessed as late apoptotic cells at 2.5 uM after 48 hrs by Annexin-V and dead cell assay (reference value: 1.45%); format: functional
HCT-116 [16] = assay: Induction of apoptosis in human HCT116 cells assessed as increase in caspase-3/7 activity at 1 to 10 uM measured after 48 hrs by Caspase-Glo 3/7 assay; format: functional, cell-based
HCT-116 [17] = assay: Induction of apoptosis in human HCT116 cells assessed as caspase-3 protein level at 2.5 uM after 48 hrs by Western blot method relative to beta-actin; format: functional
HCT-116 [18] = assay: Induction of apoptosis in human HCT116 cells assessed as Bcl-2 protein level at 2.5 uM after 48 hrs by Western blot method relative to beta-actin; format: functional
HT-29 [19] = assay: Cell cycle arrest in human HT-29 cells assessed as accumulation at G0/G1 phase at 10 uM after 48 hrs (reference value: 53.9%); format: functional
HCT-116 [20] = assay: Cell cycle arrest in human HCT116 cells assessed as accumulation at G2/M phase at 5 uM after 48 hrs (reference value: 21.5%); format: functional
CCD-18Co = assay: Cytotoxicity against human CCD-18Co cells at 1 to 10 uM after 48 hrs by CytoTox-96 non-radioactive assay; format: cell-based
HT-29 [21] = assay: Induction of apoptosis in human HT-29 cells assessed as in p53 protein level at 5 uM after 48 hrs by Western blot method relative to beta-actin; format: functional
HCT-116 [22] = assay: Cytotoxicity against human HCT116 cells at 1 to 10 uM after 48 hrs by CytoTox-96 non-radioactive assay; format: functional, cell-based
HCT-116 [23] = assay: Induction of apoptosis in human HCT116 cells assessed as late apoptotic cells at 10 uM after 48 hrs by Annexin-V and dead cell assay (reference value: 1.45%); format: functional
HCT-116 [24] = assay: Induction of apoptosis in human HCT116 cells assessed as in p53 protein level at 10 uM after 48 hrs by Western blot method relative to beta-actin; format: functional
HCT-116 [25] = assay: Induction of apoptosis in human HCT116 cells assessed as p53 protein level at 1 uM after 48 hrs by Western blot method relative to beta-actin; format: functional
HCT-116 [26] = assay: Induction of apoptosis in human HCT116 cells assessed as Bcl-2 protein level at 10 uM after 48 hrs by Western blot method relative to beta-actin; format: functional
HT-29 [27] = assay: Cell cycle arrest in human HT-29 cells assessed as accumulation at G2/M phase at 2.5 uM after 48 hrs (reference value: 14.7%); format: functional
HCT-116 [28] = assay: Cell cycle arrest in human HCT116 cells assessed as accumulation at subG1 phase after 48 hrs; format: functional, cell-based
HCT-116 [29] = assay: Cell cycle arrest in human HCT116 cells assessed as accumulation at S phase at 10 uM after 48 hrs (reference value: 10.9%); format: functional
HCT-116 [30] = assay: Induction of apoptosis in human HCT116 cells assessed as late apoptotic cells at 1 uM after 48 hrs by Annexin-V and dead cell assay (reference value: 1.45%); format: functional
HT-29 [31] = assay: Induction of apoptosis in human HT-29 cells assessed as cleaved caspase-3 protein level at 1 uM after 48 hrs by Western blot method relative to caspase-3; format: functional
HT-29 [32] = assay: Induction of apoptosis in human HT-29 cells assessed as cleaved caspase-3 protein level at 10 uM after 48 hrs by Western blot method relative to caspase-3; format: functional
HCT-116 [33] = assay: Induction of apoptosis in human HCT116 cells assessed as live cells at 2.5 uM after 48 hrs by Annexin-V and dead cell assay (reference value: 96.75%); format: functional
HT-29 [34] = assay: Induction of apoptosis in human HT-29 cells assessed as caspase-3 protein level at 2.5 uM after 48 hrs by Western blot method relative to beta-actin; format: functional
HCT-116 [35] = assay: Induction of apoptosis in human HCT116 cells assessed as necrotic cells at 1 uM after 48 hrs by Annexin-V and dead cell assay (reference value: 0.10%); format: functional
HT-29 [36] = assay: Cell cycle arrest in human HT-29 cells assessed as accumulation at S phase at 5 uM after 48 hrs (reference value: 9.7%); format: functional
HCT-116 [37] = assay: Induction of apoptosis in human HCT116 cells assessed as cyclin E protein level at 1 uM after 48 hrs by Western blot method relative to beta-actin; format: functional
HCT-116 [38] = assay: Induction of apoptosis in human HCT116 cells assessed as caspase-3 protein level at 1 uM after 48 hrs by Western blot method relative to beta-actin; format: functional
HT-29 [39] = assay: Induction of apoptosis in human HT-29 cells assessed as cleaved caspase-3 protein level at 2.5 uM after 48 hrs by Western blot method relative to caspase-3; format: functional
HCT-116 [40] = assay: Induction of apoptosis in human HCT116 cells assessed as early apoptotic cells at 5 uM after 48 hrs by Annexin-V and dead cell assay (reference value: 1.70%); format: functional

SMILES: O=C(OC[C@H]1O[C@@H](OC(=O)c2cc(O)c(O)c(O)c2)[C@H](OC(=O)c2cc(O)c(O)c(O)c2)[C@@H](OC(=O)c2cc(O)c(O)c(O)c2)[C@@H]1OC(=O)c1cc(O)c(O)c(O)c1)c1cc(O)c(O)c(O)c1 [PENTAGALLOYL GLUCOSE]
- Activity (HCT-116 [1]): 0.45%
- Activity (HCT-116 [2]): 0.1%
- Activity (HT-29 [3]): 13.4%
- Activity (HT-29 [4]): Active
- fold change (FC) (HT-29 [5]): 4.4
- Activity (HT-29 [6]): 43.9%
- fold change (FC) (HT-29 [7]): 0.9
- fold change (FC) (HT-29 [8]): 0.8
- Activity (HCT-116 [9]): 9%
- fold change (FC) (HT-29 [10]): 2.4
- fold change (FC) (HCT-116 [11]): 1.4
- Activity (HCT-116 [12]): 18.1%
- Activity (HT-29 [13]): 12.7%
- fold change (FC) (HCT-116 [14]): 0.5
- Activity (HCT-116 [15]): 1%
- Activity (HCT-116 [16]): Active
- fold change (FC) (HCT-116 [17]): 109.9
- fold change (FC) (HCT-116 [18]): 1.8
- Activity (HT-29 [19]): 37.3%
- Activity (HCT-116 [20]): 20.9%
- Activity (CCD-18Co): Non-Toxic
- fold change (FC) (HT-29 [21]): 3
- Activity (HCT-116 [22]): Active
- Activity (HCT-116 [23]): 6.1%
- fold change (FC) (HCT-116 [24]): 8.1
- fold change (FC) (HCT-116 [25]): 1.8
- fold change (FC) (HCT-116 [26]): 0.7
- Activity (HT-29 [27]): 20.8%
- Activity (HCT-116 [28]): Dose-dependent effect
- Activity (HCT-116 [29]): 11.8%
- Activity (HCT-116 [30]): 0.65%
- fold change (FC) (HT-29 [31]): 3
- fold change (FC) (HT-29 [32]): 5.7
- Activity (HCT-116 [33]): 97.55%
- fold change (FC) (HT-29 [34]): 4.7
- Activity (HCT-116 [35]): 0.1%
- Activity (HT-29 [36]): 14.3%
- fold change (FC) (HCT-116 [37]): 1.8
- fold change (FC) (HCT-116 [38]): 29.6
- fold change (FC) (HT-29 [39]): 6
- Activity (HCT-116 [40]): 1.85%
